Where “and” joins values, the source holds several entries; their conditions need not be identical. Identical values can stand only once. Inconclusive results and toxic doses are left out. Rule as the data show it: active = T/C of 150% or more; inactive = T/C below 125%.
Tested on: L1210 leukemia ip in BDF1 mice, survival T/C
Assay: NCI In Vivo Anticancer Drug Screen. Data for tumor model L1210 Leukemia (intraperitoneal) in B6D2F1 (BDF1) mice
Conditions: endpoint: mean survival time, higher = longer survival
In short: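 Transplantable tumor model; survival measured in treated vs vehicle control mice. Value = treated/control.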

[1] = dose: 100.0 mg/kg/injection, schedule: Q01DX001 (ip), vehicle: Klucel (hydroxypropylcellulose) (HPC)
[2] = dose: 100.0 mg/kg/injection, schedule: Q04DX003 (ip), vehicle: Klucel (hydroxypropylcellulose) (HPC)
[3] = dose: 200.0 mg/kg/injection, schedule: Q01DX001 (ip), vehicle: Klucel (hydroxypropylcellulose) (HPC)
[4] = dose: 200.0 mg/kg/injection, schedule: Q04DX003 (ip), vehicle: Klucel (hydroxypropylcellulose) (HPC)
[5] = dose: 400.0 mg/kg/injection, schedule: Q01DX001 (ip), vehicle: Klucel (hydroxypropylcellulose) (HPC)
[6] = dose: 400.0 mg/kg/injection, schedule: Q04DX003 (ip), vehicle: Klucel (hydroxypropylcellulose) (HPC)
[7] = dose: 100.0 mg/kg/injection, schedule: Q01DX009 (ip), vehicle: Klucel (hydroxypropylcellulose) (HPC)
[8] = dose: 200.0 mg/kg/injection, schedule: Q01DX009 (ip), vehicle: Klucel (hydroxypropylcellulose) (HPC)
[9] = dose: 400.0 mg/kg/injection, schedule: Q01DX009 (ip), vehicle: Klucel (hydroxypropylcellulose) (HPC)

Measured: T/C

Cc1cc(C2C(O)C(c3cc(C)on3)C2(C)O)no1 (stereo not drawn)
inactive: [1] 98 % of control | [2] 103 % of control | [3] 98 % of control | [4] 97 % of control | [5] 97 % of control | [6] 103 % of control

Nc1nc(N)nc(N)n1
inactive: dose: 50.0 mg/kg/injection, schedule: Q04DX002 (ip), vehicle: Klucel (hydroxypropylcellulose) (HPC) 94 % of control | [7] 92 % of control and 113 % of control | dose: 100.0 mg/kg/injection, schedule: Q04DX002 (ip), vehicle: Klucel (hydroxypropylcellulose) (HPC) 94 % of control | [8] 92 % of control and 99 % of control | dose: 200.0 mg/kg/injection, schedule: Q04DX002 (ip), vehicle: Klucel (hydroxypropylcellulose) (HPC) 94 % of control and 105 % of control | [9] 95 % of control and 99 % of control | dose: 400.0 mg/kg/injection, schedule: Q04DX002 (ip), vehicle: Klucel (hydroxypropylcellulose) (HPC) 102 % of control | dose: 800.0 mg/kg/injection, schedule: Q01DX009 (ip), vehicle: Klucel (hydroxypropylcellulose) (HPC) 96 % of control | dose: 1000.0 mg/kg/injection, schedule: Q01DX009 (ip), vehicle: Klucel (hydroxypropylcellulose) (HPC) 103 % of control

O=C1/C(=C/c2ccco2)CCC2CC3(CCC12)OCCO3 (stereo not drawn)
inactive: dose: 100.0 mg/kg/injection, schedule: Q01DX009 (ip), vehicle: saline 116 % of control | dose: 100.0 mg/kg/injection, schedule: Q04DX003 (ip), vehicle: saline 92 % of control | dose: 200.0 mg/kg/injection, schedule: Q01DX009 (ip), vehicle: saline 102 % of control | dose: 200.0 mg/kg/injection, schedule: Q04DX003 (ip), vehicle: saline 97 % of control | dose: 400.0 mg/kg/injection, schedule: Q01DX009 (ip), vehicle: saline 98 % of control | dose: 400.0 mg/kg/injection, schedule: Q04DX003 (ip), vehicle: saline 94 % of control

CCCCCCCC[As](C)(=O)O
inactive: dose: 6.25 mg/kg/injection, schedule: Q01DX009 (ip), vehicle: saline with Tween-80 89 % of control

O=C1CC(O)(c2ccccc2)C2(c3ccccc3)OC2O1 (stereo not drawn)
inactive: [1] 101 % of control | [7] 96 % of control | [3] 101 % of control | [8] 93 % of control | [5] 101 % of control | [9] 95 % of control

Cc1nc(/N=N/c2nc(C)c(C)[nH]2)[nH]c1C
inactive: [7] 95 % of control | [2] 88 % of control | [8] 104 % of control | [4] 93 % of control | [9] 92 % of control | [6] 93 % of control

CC(C)N(C(=O)C1C2C=CC(C2)C1C(=O)N(C(C)C)C(C)C)C(C)C (stereo not drawn)
inactive: dose: 25.0 mg/kg/injection, schedule: Q04DX003 (ip), vehicle: saline with Tween-80 98 % of control | dose: 50.0 mg/kg/injection, schedule: Q04DX003 (ip), vehicle: saline with Tween-80 98 % of control | dose: 100.0 mg/kg/injection, schedule: Q04DX003 (ip), vehicle: saline with Tween-80 106 % of control and 107 % of control

CCCOC(=O)c1ccc([N+](=O)[O-])o1
inactive: [1] 95 % of control | [3] 92 % of control

CS(=O)(=O)OCCN(CCOS(C)(=O)=O)c1ccc(C(=O)O)cc1
inactive: dose: 42.0 mg/kg/injection, schedule: Q01DX015 (ip), vehicle: other 108 % of control | dose: 50.0 mg/kg/injection, schedule: Q01DX001 (ip), vehicle: other 115 % of control | dose: 66.0 mg/kg/injection, schedule: Q01DX015 (ip), vehicle: saline 120 % of control | dose: 72.0 mg/kg/injection, schedule: Q01DX015 (ip), vehicle: other 121 % of control | dose: 100.0 mg/kg/injection, schedule: Q01DX001 (ip), vehicle: other 115 % of control | dose: 100.0 mg/kg/injection, schedule: Q01DX015 (ip), vehicle: saline 122 % of control | dose: 120.0 mg/kg/injection, schedule: Q01DX015 (ip), vehicle: other 116 % of control | dose: 150.0 mg/kg/injection, schedule: Q01DX015 (ip), vehicle: saline 117 % of control | dose: 177.0 mg/kg/injection, schedule: Q01DX001 (ip), vehicle: other 118 % of control | dose: 177.0 mg/kg/injection, schedule: Q01DX001 (ip), vehicle: saline 117 % of control | dose: 177.0 mg/kg/injection, schedule: Q01DX015 (ip), vehicle: other 93 % of control | dose: 220.0 mg/kg/injection, schedule: Q01DX015 (ip), vehicle: saline 86 % of control | dose: 267.0 mg/kg/injection, schedule: Q01DX001 (ip), vehicle: other 118 % of control | dose: 267.0 mg/kg/injection, schedule: Q01DX001 (ip), vehicle: saline 110 % of control

Nc1ccc2c(c1)C1(NC(=O)NC1=O)c1cc(N)ccc1-2
inactive: dose: 50.0 mg/kg/injection, schedule: Q01DX001 (ip), vehicle: carboxymethylcellulose (CMC) 101 % of control | dose: 100.0 mg/kg/injection, schedule: Q01DX001 (ip), vehicle: carboxymethylcellulose (CMC) 101 % of control | dose: 200.0 mg/kg/injection, schedule: Q01DX001 (ip), vehicle: carboxymethylcellulose (CMC) 109 % of control | dose: 400.0 mg/kg/injection, schedule: Q01DX001 (ip), vehicle: carboxymethylcellulose (CMC) 103 % of control

O=C(/C=C\c1ccc(O)cc1)c1ccccc1
inactive: [7] 97 % of control | [2] 89 % of control | [8] 106 % of control | [4] 96 % of control | [9] 101 % of control

CCOC(=O)C(Br)C(=O)OCC
inactive: dose: 18.75 mg/kg/injection, schedule: Q01DX009 (ip), vehicle: saline with Tween-80 97 % of control

CNC1C(c2ccc(C)cc2)=NN(c2ccccc2)C1c1ccccc1 (stereo not drawn)
inactive: dose: 100.0 mg/kg/injection, schedule: Q01DX001 (ip), vehicle: saline sonified 95 % of control | dose: 200.0 mg/kg/injection, schedule: Q01DX001 (ip), vehicle: saline sonified 95 % of control | dose: 400.0 mg/kg/injection, schedule: Q01DX001 (ip), vehicle: saline sonified 89 % of control

CCCC(NCc1ccccc1)C(=O)O (stereo not drawn)
inactive: dose: 100.0 mg/kg/injection, schedule: Q01DX009 (ip), vehicle: acetone 90 % of control | dose: 200.0 mg/kg/injection, schedule: Q01DX009 (ip), vehicle: acetone 90 % of control | dose: 400.0 mg/kg/injection, schedule: Q01DX009 (ip), vehicle: acetone 90 % of control

Cc1cc(C2CCCCC2)c2ccccc2c1C
inactive: dose: 100.0 mg/kg/injection, schedule: Q01DX009 (ip), vehicle: saline sonified 95 % of control | [2] 103 % of control | dose: 200.0 mg/kg/injection, schedule: Q01DX009 (ip), vehicle: saline sonified 102 % of control | [4] 98 % of control | dose: 400.0 mg/kg/injection, schedule: Q01DX009 (ip), vehicle: saline sonified 99 % of control | [6] 106 % of control

CCOc1nc(N)nc2n[nH]nc12
inactive: dose: 82.0 mg/kg/injection, schedule: Q01DX Z (ip), vehicle: carboxymethylcellulose (CMC) 93 % of control | dose: 175.0 mg/kg/injection, schedule: Q01DX Z (ip), vehicle: carboxymethylcellulose (CMC) 112 % of control | dose: 262.0 mg/kg/injection, schedule: Q01DX Z (ip), vehicle: carboxymethylcellulose (CMC) 95 % of control

CCCCOc1ccc(OC(=O)Nc2cccc(C(C)=O)c2)cc1
inactive: [7] 108 % of control | [8] 96 % of control | [9] 96 % of control

COc1ccccc1NC(=S)NCc1ccco1
inactive: dose: 100.0 mg/kg/injection, schedule: Q04DX002 (ip), vehicle: saline with Tween-80 89 % of control | dose: 200.0 mg/kg/injection, schedule: Q04DX002 (ip), vehicle: saline with Tween-80 89 % of control
